Experimental data taken from ChEMBL document CHEMBL5212743, “Selectivity Literature for EUbOPEN Chemogenomics Library wave 3” (2023).
Values belong to the compound of their own block, whether it stands above or below them.

Experiments:
[1] = target: Histone acetyltransferase KAT2B (Homo sapiens, UniProt Q92831); assay: Selectivity interaction (TR-FRET assay) EUB0000256b KAT2B
[2] = target: Bromodomain-containing protein 7 (Homo sapiens, UniProt Q9NPI1); assay: Selectivity interaction (BROMOscan™ panel (DiscoverX)) EUB0000256b BRD7
[3] = target: Bromodomain-containing protein 9 (Homo sapiens, UniProt Q9H8M2); assay: Selectivity interaction (BROMOscan™ panel (DiscoverX)) EUB0000256b BRD9
[4] = target: Bromodomain adjacent to zinc finger domain protein 2B (Homo sapiens, UniProt Q9UIF8); assay: Selectivity interaction (BROMOscan™ panel (DiscoverX)) EUB0000256b BAZ2B
[5] = target: Acetylcholinesterase (Homo sapiens, UniProt P22303); assay: Selectivity interaction (Internal GSK panel (receptors, ion channels and other enzymes )) EUB0000256b ACHE
[6] = target: Bromodomain-containing protein 1 (Homo sapiens, UniProt O95696); assay: Selectivity interaction (BROMOscan™ panel (DiscoverX)) EUB0000256b BRD1
[7] = target: Peregrin (Homo sapiens, UniProt P55201); assay: Selectivity interaction (BROMOscan™ panel (DiscoverX)) EUB0000256b BRPF1
[8] = target: T1, Gamma-aminobutyric acid receptor subunit alpha-1 (Homo sapiens, UniProt P14867); assay: Selectivity interaction (GPCR panel (PDSP screen)) EUB0000713a GABRA1
T1 sequence (P14867 whole entry): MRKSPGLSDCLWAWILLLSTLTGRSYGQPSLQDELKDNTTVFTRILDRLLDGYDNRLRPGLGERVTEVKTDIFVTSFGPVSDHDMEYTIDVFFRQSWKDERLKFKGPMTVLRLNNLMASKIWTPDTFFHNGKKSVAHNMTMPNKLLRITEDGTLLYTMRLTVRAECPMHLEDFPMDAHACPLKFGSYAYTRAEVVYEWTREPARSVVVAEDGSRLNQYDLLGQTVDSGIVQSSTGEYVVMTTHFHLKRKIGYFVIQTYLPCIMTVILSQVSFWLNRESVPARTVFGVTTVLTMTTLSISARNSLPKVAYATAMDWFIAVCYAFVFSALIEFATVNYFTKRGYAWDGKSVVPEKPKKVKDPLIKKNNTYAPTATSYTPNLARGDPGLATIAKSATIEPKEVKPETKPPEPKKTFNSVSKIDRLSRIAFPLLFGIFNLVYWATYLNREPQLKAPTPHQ

[9] = target: Tyrosine-protein kinase Lyn (Homo sapiens, UniProt P07948); assay: Selectivity interaction (NanoBRET assay (HEK293T cells)) EUB0000713a LYN
[10] = target: Mitogen-activated protein kinase 14 (Homo sapiens, UniProt Q16539); assay: Selectivity interaction (KinomeScan (DiscoverX)) EUB0000713a MAPK14; conditions: at 100 nM
[11] = target: T2, Ephrin type-B receptor 6 (Homo sapiens) (UniProt O15197); assay: Selectivity interaction (KinomeScan (DiscoverX)) EUB0000713a EPHB6; conditions: at 100 nM
T2 sequence (whole entry): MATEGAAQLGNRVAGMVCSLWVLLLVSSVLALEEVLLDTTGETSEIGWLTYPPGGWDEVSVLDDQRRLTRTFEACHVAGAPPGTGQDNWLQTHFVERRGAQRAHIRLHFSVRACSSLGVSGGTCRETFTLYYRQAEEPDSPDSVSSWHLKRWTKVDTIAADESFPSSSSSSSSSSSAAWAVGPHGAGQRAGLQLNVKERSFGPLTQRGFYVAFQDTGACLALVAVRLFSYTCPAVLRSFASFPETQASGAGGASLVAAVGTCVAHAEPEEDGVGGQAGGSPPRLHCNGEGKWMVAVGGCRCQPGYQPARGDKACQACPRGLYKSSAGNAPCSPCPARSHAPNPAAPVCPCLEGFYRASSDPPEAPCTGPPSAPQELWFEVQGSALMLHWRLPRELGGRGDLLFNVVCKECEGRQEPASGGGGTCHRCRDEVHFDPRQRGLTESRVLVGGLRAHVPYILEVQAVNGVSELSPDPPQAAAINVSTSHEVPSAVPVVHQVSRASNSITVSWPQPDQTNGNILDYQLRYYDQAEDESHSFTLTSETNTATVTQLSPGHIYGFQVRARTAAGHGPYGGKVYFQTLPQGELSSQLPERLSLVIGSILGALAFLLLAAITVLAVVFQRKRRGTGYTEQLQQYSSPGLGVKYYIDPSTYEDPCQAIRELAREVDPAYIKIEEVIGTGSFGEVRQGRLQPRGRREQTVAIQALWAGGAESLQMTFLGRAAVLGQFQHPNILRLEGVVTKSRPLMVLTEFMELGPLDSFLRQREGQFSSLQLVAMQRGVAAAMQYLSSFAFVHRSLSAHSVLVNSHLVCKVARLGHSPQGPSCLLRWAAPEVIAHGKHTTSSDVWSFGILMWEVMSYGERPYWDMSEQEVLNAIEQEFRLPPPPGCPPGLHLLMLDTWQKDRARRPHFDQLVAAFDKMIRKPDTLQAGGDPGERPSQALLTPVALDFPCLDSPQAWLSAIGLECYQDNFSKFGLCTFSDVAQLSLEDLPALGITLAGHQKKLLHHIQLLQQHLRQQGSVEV

[12] = target: Serine/threonine-protein kinase 10 (Homo sapiens) (UniProt O94804); assay: Selectivity interaction (KinomeScan (DiscoverX)) EUB0000713a STK10; conditions: at 100 nM
[13] = target: Serine/threonine-protein kinase PAK 3 (Homo sapiens, UniProt O75914); assay: Selectivity interaction (KinomeScan (DiscoverX)) EUB0000713a PAK3; conditions: at 100 nM
[14] = target: Cyclin-dependent kinase 11A (Homo sapiens, UniProt Q9UQ88); assay: Selectivity interaction (ScanMAX (DiscoverX)) EUB0000005b CDK11A
[15] = target: Phosphorylase b kinase gamma catalytic chain, skeletal muscle/heart isoform (Homo sapiens) (UniProt Q16816); assay: Selectivity interaction (KinomeScan ([…])) EUB0000642a PHKG1; conditions: at 3 µM
[16] = target: Mitogen-activated protein kinase 10 (Homo sapiens, UniProt P53779); assay: Selectivity interaction (ActivX KiNative profiling assay (in HCT-116 cell line (CRL-1619))) EUB0000642a MAPK10
[17] = target: Mitogen-activated protein kinase 9 (Homo sapiens, UniProt P45984); assay: Selectivity interaction (ActivX KiNative profiling assay (in HCT-116 cell line (CRL-1619))) EUB0000642a MAPK9
[18] = target: Dual specificity tyrosine-phosphorylation-regulated kinase 1A (Homo sapiens, UniProt Q13627); assay: Selectivity interaction (KinomeScan (Invitrogen)) EUB0000642a DYRK1A; conditions: at 3 µM
[19] = target: Dual specificity tyrosine-phosphorylation-regulated kinase 1B (Homo sapiens, UniProt Q9Y463); assay: Selectivity interaction (KinomeScan ([…])) EUB0000642a DYRK1B; conditions: at 3 µM
[20] = target: Mitogen-activated protein kinase 8 (Homo sapiens, UniProt P45983); assay: Selectivity interaction (ActivX KiNative profiling assay (in HCT-116 cell line (CRL-1619))) EUB0000642a MAPK8
[21] = target: Dual specificity tyrosine-phosphorylation-regulated kinase 3 (Homo sapiens) (UniProt O43781); assay: Selectivity interaction (KinomeScan ([…])) EUB0000642a DYRK3; conditions: at 3 µM
[22] = target: Dual specificity protein kinase CLK1 (Homo sapiens, UniProt P49759); conditions: at 3 µM
[23] = target: Phosphatidylinositol 5-phosphate 4-kinase type-2 gamma (Homo sapiens, UniProt Q8TBX8); assay: Selectivity interaction (ActivX KiNative profiling assay (in HCT-116 cell line (CRL-1619))) EUB0000642a PIP4K2C

Sequence of Tyrosine-protein kinase Lyn (P07948 whole entry): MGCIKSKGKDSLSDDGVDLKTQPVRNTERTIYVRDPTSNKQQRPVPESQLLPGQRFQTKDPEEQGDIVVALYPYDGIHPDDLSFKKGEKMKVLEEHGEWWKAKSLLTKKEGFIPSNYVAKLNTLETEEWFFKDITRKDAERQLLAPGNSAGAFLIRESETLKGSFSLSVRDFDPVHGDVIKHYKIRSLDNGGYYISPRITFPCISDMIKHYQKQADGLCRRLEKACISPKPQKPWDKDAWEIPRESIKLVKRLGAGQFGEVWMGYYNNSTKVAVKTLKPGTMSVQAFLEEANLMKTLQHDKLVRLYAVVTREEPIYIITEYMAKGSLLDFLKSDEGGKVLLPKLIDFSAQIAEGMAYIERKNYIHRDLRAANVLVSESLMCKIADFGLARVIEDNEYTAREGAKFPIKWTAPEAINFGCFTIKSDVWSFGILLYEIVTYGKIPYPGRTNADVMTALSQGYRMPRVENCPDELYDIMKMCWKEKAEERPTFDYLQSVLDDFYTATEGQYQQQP
Sequence of Histone acetyltransferase KAT2B (Q92831 whole entry): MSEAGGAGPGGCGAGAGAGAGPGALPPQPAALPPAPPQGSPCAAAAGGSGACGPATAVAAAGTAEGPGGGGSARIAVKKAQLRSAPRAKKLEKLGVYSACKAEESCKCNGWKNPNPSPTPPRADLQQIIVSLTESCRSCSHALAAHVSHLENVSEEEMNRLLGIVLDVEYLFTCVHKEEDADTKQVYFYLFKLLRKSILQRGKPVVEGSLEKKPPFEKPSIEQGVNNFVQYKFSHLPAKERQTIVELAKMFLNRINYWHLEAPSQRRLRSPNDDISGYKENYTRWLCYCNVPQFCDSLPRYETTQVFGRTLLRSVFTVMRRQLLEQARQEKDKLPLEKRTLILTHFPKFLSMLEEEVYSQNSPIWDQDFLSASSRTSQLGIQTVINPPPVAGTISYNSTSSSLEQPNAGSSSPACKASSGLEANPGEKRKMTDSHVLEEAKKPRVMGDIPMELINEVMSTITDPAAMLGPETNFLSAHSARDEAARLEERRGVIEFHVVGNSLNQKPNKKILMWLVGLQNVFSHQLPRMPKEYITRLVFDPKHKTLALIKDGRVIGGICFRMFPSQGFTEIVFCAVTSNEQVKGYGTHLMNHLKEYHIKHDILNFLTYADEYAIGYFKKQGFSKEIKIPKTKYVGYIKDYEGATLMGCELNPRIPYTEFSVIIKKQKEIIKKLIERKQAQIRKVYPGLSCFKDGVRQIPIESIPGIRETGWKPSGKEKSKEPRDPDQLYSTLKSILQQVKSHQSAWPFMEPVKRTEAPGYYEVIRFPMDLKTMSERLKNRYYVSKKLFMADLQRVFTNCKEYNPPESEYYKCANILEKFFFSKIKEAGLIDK
Sequence of Bromodomain-containing protein 1 (O95696 whole entry): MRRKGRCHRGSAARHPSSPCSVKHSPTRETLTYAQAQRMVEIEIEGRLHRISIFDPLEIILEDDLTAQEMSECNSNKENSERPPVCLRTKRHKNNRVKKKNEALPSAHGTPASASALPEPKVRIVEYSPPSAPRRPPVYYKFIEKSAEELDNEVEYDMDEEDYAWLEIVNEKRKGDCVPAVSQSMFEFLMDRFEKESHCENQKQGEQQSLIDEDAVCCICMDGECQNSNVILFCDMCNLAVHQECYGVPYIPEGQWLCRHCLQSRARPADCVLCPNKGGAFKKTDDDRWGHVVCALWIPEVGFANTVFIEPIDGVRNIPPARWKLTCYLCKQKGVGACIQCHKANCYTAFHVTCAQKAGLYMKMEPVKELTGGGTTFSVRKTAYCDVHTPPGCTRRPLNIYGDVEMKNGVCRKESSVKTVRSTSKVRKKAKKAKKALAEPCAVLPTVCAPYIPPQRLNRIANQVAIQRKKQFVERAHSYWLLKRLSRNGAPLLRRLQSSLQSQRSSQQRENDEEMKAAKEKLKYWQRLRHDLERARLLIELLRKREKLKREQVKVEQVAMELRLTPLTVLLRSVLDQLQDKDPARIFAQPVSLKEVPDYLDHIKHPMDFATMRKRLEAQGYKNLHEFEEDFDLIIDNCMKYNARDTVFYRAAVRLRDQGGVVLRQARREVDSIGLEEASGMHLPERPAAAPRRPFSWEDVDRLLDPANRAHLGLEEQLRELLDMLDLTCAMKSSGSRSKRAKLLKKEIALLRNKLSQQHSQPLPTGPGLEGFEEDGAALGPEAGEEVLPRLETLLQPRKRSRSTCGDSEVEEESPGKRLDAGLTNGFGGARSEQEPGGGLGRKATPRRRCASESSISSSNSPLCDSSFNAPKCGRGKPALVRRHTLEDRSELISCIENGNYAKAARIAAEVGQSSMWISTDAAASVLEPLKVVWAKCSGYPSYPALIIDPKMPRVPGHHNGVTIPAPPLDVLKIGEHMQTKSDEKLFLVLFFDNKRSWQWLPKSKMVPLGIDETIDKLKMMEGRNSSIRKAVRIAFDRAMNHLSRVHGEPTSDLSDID
Sequence of Mitogen-activated protein kinase 10 (P53779 whole entry): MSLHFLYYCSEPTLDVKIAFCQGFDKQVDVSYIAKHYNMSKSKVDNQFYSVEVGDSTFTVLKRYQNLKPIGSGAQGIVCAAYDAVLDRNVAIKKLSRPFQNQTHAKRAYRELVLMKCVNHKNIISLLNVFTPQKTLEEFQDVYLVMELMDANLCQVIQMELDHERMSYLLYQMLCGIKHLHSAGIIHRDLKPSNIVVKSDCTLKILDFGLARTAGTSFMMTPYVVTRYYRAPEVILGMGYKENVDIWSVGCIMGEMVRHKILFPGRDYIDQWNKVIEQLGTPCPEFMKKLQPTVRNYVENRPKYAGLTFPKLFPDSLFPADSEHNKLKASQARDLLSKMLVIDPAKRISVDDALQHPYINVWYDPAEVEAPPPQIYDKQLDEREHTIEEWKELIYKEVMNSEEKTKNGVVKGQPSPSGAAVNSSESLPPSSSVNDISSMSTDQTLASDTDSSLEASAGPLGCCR
Sequence of Dual specificity protein kinase CLK1 (P49759 whole entry, looked up): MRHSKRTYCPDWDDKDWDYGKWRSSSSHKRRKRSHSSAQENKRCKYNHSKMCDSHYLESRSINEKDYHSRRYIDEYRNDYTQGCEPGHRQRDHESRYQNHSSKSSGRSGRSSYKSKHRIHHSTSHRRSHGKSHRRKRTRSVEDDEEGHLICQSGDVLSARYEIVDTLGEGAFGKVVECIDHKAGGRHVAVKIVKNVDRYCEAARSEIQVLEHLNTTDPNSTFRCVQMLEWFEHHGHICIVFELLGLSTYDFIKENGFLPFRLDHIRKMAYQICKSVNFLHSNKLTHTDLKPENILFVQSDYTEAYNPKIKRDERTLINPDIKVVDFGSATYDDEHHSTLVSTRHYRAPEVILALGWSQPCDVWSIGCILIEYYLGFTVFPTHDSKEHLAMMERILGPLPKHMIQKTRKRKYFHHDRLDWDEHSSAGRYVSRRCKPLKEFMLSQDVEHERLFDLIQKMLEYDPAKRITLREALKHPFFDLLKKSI
Sequence of Dual specificity tyrosine-phosphorylation-regulated kinase 1B (Q9Y463 whole entry, looked up): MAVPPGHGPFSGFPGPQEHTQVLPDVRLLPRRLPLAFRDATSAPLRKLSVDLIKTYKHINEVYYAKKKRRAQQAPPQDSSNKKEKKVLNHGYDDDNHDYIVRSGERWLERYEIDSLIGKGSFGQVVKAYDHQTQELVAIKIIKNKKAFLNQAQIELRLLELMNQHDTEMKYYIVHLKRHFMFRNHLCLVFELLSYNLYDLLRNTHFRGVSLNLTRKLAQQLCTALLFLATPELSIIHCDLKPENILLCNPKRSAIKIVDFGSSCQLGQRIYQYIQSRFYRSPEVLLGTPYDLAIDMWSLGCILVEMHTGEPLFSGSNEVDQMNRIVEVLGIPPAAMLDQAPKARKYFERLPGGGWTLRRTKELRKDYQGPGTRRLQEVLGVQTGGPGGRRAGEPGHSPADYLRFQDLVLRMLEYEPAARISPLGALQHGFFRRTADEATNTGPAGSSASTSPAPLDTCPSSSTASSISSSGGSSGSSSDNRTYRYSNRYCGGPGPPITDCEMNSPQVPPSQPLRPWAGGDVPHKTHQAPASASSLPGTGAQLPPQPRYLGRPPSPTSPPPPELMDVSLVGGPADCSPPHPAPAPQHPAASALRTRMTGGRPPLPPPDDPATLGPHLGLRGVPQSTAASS
Sequence of Acetylcholinesterase (P22303 whole entry): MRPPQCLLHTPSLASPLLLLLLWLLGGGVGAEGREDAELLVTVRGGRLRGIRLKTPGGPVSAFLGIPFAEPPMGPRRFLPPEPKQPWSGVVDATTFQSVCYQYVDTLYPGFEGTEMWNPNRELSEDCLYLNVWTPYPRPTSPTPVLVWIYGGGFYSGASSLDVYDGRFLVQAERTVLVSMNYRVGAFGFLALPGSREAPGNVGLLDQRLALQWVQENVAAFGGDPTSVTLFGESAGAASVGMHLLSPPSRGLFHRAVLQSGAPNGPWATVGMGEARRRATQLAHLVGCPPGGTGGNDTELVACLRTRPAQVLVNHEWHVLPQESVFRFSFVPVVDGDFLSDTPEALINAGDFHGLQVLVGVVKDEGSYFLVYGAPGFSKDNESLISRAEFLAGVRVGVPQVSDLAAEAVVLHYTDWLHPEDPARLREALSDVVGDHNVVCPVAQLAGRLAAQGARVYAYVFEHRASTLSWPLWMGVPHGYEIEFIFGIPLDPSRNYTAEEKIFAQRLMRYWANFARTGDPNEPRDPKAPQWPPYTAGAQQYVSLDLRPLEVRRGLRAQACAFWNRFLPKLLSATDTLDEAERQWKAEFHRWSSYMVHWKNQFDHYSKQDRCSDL
Sequence of Mitogen-activated protein kinase 9 (P45984 whole entry): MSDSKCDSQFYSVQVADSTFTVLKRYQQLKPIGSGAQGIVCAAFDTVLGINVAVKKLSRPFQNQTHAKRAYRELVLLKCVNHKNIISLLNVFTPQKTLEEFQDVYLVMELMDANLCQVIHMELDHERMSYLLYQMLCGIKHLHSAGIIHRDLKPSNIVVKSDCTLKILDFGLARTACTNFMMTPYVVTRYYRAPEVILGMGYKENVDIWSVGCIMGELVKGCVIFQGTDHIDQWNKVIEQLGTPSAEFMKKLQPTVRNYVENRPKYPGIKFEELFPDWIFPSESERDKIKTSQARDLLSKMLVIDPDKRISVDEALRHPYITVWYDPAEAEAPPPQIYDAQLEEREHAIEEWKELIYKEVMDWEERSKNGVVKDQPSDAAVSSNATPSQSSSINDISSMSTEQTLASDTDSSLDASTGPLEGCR

Structure (SMILES): CN1C[C@H](Nc2cnn(C)c(=O)c2Br)C[C@H](c2ccccc2)C1
IC50 [1]: 40 nM
Ki [2]: 1500 nM
Ki [3]: 1400 nM
Ki [4]: 840 nM
XC50 [5]: 3200 nM
Ki [6]: 110 nM
Ki [7]: 140 nM

Ki [8]: 217 nM
EC50 [9]: 7400 nM
% of control [10]: 0%
% of control [11]: 3%
% of control [12]: 1.8%
% of control [13]: 26.1%
Structure (SMILES): Cc1cc(C)c(-n2ccn3nc(-c4cccnc4)cc23)cc1NC(=O)c1cc(C#N)cc(S(F)(F)(F)(F)F)c1 [BAY-826]

Kd [14]: 370 nM
Structure (SMILES): Cc1cn(-c2cc(NC(=O)c3ccc4c(c3)CN(c3cncnc3)C[C@@H]4C)cc(C(F)(F)F)c2)cn1

% of inhibition [15]: 96%
IC50 [16]: 680 nM
IC50 [17]: 680 nM
% of inhibition [18]: 94%
% of inhibition [19]: 98%
IC50 [20]: 680 nM
% of inhibition [21]: 95%
% of inhibition [22]: 99%
IC50 [23]: 1300 nM
Structure (SMILES): CNC(=O)c1ccc(Nc2nc(OC3CCCC3)c3c(-c4ccc5nc(C)oc5c4)c[nH]c3n2)c(OC)c1
